For the first experiment, the system named is brains, heart, liver, muscle, and DRG of the NHPs. The experiment is described as follows: Maturation of TTM-001 and TTM-002 capsids, NGS enrichment in NHP tissues. The following applies: NGS fold-enrichment of RNA, NHP brain, relative to AAV9 control. Format: in vivo. In short, it runs like this: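 Variants carry mutations within and flanking the loop IV peptide insert: positions 450–466 were triplet-randomized, while positions 449–466 received low-frequency point mutations. The combined pool went into two NHPs, and each peptide was scored by NGS enrichment ratio against AAV9.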
For ETINGSGSPHSKAQNLQT, the “Fold Enrichment relative to AAV9, Brain (NHP)” value came to 90.969 fold.
Take KTERISGSPHSKAQNQQT: the “Fold Enrichment relative to AAV9, Brain (NHP)” value amounted to 103.692 fold.
With KTELWHDSPHKSGQNQQT, the “Fold Enrichment relative to AAV9, Brain (NHP)” value was 85.323 fold.
With “TTINGHDSPHKSGQNQQT (peptide inserted in AAV capsid)”, the “Fold Enrichment relative to AAV9, Brain (NHP)” value is listed as 108.963 fold.
The same measure, in the same setting: the figure for KTINGHDSPHKIGQNQHA is 77.321 fold.

The experiment is the same for the next values; noted with them: NGS fold-enrichment of matured AAV capsid variants; NHP brain, RNA; relative to AAV9 control.
On to KTINGSGSPHSKAIGKQT, for which the “Fold Enrichment relative to AAV9, Brain (NHP)” value stood at 56.158 fold.
With KTIRENGSPHSKAQNQQT, the “Fold Enrichment relative to AAV9, Brain (NHP)” value was determined as 55.605 fold.
On to KTINGSGSPHSKAQSAHT, for which the “Fold Enrichment relative to AAV9, Brain (NHP)” value is listed as 51.569 fold.

Still in this experiment, the particulars now being: NGS fold-enrichment, DRG of NHPs, relative to AAV9 control.
Consider ETINGSGSPHSKAQNLQT, for which the “Fold Enrichment relative to AAV9, DRG (NHP)” value is on record as 0.221 fold.
Still for that read-out and setting: the result for KTERISGSPHSKAQNQQT reads 0.000 fold.

Staying with this experiment, now noted: NGS fold-enrichment, NHP DRG, relative to AAV9 control.
Consider ETINGSGSPHSKAQNLQT, for which the “Fold Enrichment relative to AAV9, DRG (NHP)” value is 0.221 fold.
For KTERISGSPHSKAQNQQT, the “Fold Enrichment relative to AAV9, DRG (NHP)” value turned out to be 0.000 fold.
Turning to KTELWHDSPHKSGQNQQT, the “Fold Enrichment relative to AAV9, DRG (NHP)” value was found to be 0.057 fold.
In the case of “TTINGHDSPHKSGQNQQT (peptide inserted in AAV capsid)”, the “Fold Enrichment relative to AAV9, DRG (NHP)” value worked out at 1.512 fold.
Still for that read-out and setting: the figure for KTINGHDSPHKIGQNQHA is 0.000 fold.

Still in this experiment, the particulars now being: NGS fold-enrichment, NHP heart, relative to AAV9 control.
Regarding ETINGSGSPHSKAQNLQT, the “Fold Enrichment relative to AAV9, Heart (NHP)” value is 1.023 fold.
Still for that read-out and setting: the figure for KTERISGSPHSKAQNQQT is 0.000 fold; for KTELWHDSPHKSGQNQQT it is 0.020 fold.
Take “TTINGHDSPHKSGQNQQT (peptide inserted in AAV capsid)”: the “Fold Enrichment relative to AAV9, Heart (NHP)” value stood at 3.445 fold.
Turning to KTINGHDSPHKIGQNQHA, the “Fold Enrichment relative to AAV9, Heart (NHP)” value was found to be 18.836 fold.

Still in this experiment, the particulars now being: NGS fold-enrichment, NHP liver DNA, relative to AAV9 control.
Turning to ETINGSGSPHSKAQNLQT, the “Fold Enrichment relative to AAV9, Liver DNA (NHP)” value was 0.813 fold.
Regarding KTERISGSPHSKAQNQQT, the “Fold Enrichment relative to AAV9, Liver DNA (NHP)” value was found to be 0.370 fold.
The same measure, in the same setting: the figure for KTELWHDSPHKSGQNQQT is 0.243 fold; for “TTINGHDSPHKSGQNQQT (peptide inserted in AAV capsid)” it is 1.109 fold.
Take KTINGHDSPHKIGQNQHA: the “Fold Enrichment relative to AAV9, Liver DNA (NHP)” value is recorded as 0.132 fold.

The same experiment, now with this note: NGS fold-enrichment, NHP liver RNA, relative to AAV9 control.
As to ETINGSGSPHSKAQNLQT, the “Fold Enrichment relative to AAV9, Liver RNA (NHP)” value was determined as 0.179 fold.
As to KTERISGSPHSKAQNQQT, the “Fold Enrichment relative to AAV9, Liver RNA (NHP)” value is on record as 0.062 fold.
Consider KTELWHDSPHKSGQNQQT, for which the “Fold Enrichment relative to AAV9, Liver RNA (NHP)” value is 0.000 fold.
For “TTINGHDSPHKSGQNQQT (peptide inserted in AAV capsid)”, the “Fold Enrichment relative to AAV9, Liver RNA (NHP)” value is on record as 0.659 fold.
On the same count and under the same terms, the figure for KTINGHDSPHKIGQNQHA is 0.220 fold.

Staying with this experiment, now noted: NGS fold-enrichment, NHP muscle, relative to AAV9 control.
As to ETINGSGSPHSKAQNLQT, the “Fold Enrichment relative to AAV9, Muscle (NHP)” value was found to be 0.197 fold.
For the sequence KTERISGSPHSKAQNQQT, the “Fold Enrichment relative to AAV9, Muscle (NHP)” value is given as 0.000 fold.
Take KTELWHDSPHKSGQNQQT: the “Fold Enrichment relative to AAV9, Muscle (NHP)” value turned out to be 0.000 fold.
Take “TTINGHDSPHKSGQNQQT (peptide inserted in AAV capsid)”: the “Fold Enrichment relative to AAV9, Muscle (NHP)” value is 0.869 fold.
With KTINGHDSPHKIGQNQHA, the “Fold Enrichment relative to AAV9, Muscle (NHP)” value came out at 0.028 fold.

The same experiment, now with this note: NGS fold-enrichment, RNA, brain of NHPs, relative to AAV9 control.
Take ETINGSGSPHSKAQNLQT: the “Fold Enrichment relative to AAV9, Brain (NHP)” value came to 90.969 fold.
Consider KTERISGSPHSKAQNQQT, for which the “Fold Enrichment relative to AAV9, Brain (NHP)” value came to 103.692 fold.

Still in this experiment, the particulars now being: NGS fold-enrichment, heart of NHPs, relative to AAV9 control.
As to ETINGSGSPHSKAQNLQT, the “Fold Enrichment relative to AAV9, Heart (NHP)” value was 1.023 fold.
In the case of KTERISGSPHSKAQNQQT, the “Fold Enrichment relative to AAV9, Heart (NHP)” value came to 0.000 fold.

The experiment is the same for the next values; noted with them: NGS fold-enrichment, liver DNA of NHPs, relative to AAV9 control.
On to ETINGSGSPHSKAQNLQT, for which the “Fold Enrichment relative to AAV9, Liver DNA (NHP)” value came out at 0.813 fold.
Turning to KTERISGSPHSKAQNQQT, the “Fold Enrichment relative to AAV9, Liver DNA (NHP)” value was 0.370 fold.

Staying with this experiment, now noted: NGS fold-enrichment, liver RNA of NHPs, relative to AAV9 control.
With ETINGSGSPHSKAQNLQT, the “Fold Enrichment relative to AAV9, Liver RNA (NHP)” value is recorded as 0.179 fold.
KTERISGSPHSKAQNQQT: the “Fold Enrichment relative to AAV9, Liver RNA (NHP)” value was found to be 0.062 fold.

Still in this experiment, the particulars now being: NGS fold-enrichment, muscle of NHPs, relative to AAV9 control.
For ETINGSGSPHSKAQNLQT, the “Fold Enrichment relative to AAV9, Muscle (NHP)” value turned out to be 0.197 fold.
On to KTERISGSPHSKAQNQQT, for which the “Fold Enrichment relative to AAV9, Muscle (NHP)” value is 0.000 fold.

Staying with this experiment, now noted: NHP DRG; relative to AAV9 control.
As for KTINGSGSPHSKAIGKQT, the “Fold Enrichment relative to AAV9, DRG (NHP)” value was 0.000 fold.
For KTIRENGSPHSKAQNQQT, the “Fold Enrichment relative to AAV9, DRG (NHP)” value was 0.000 fold.
Regarding KTINGSGSPHSKAQSAHT, the “Fold Enrichment relative to AAV9, DRG (NHP)” value was determined as 0.068 fold.

Still in this experiment, the particulars now being: NHP heart; relative to AAV9 control.
With KTINGSGSPHSKAIGKQT, the “Fold Enrichment relative to AAV9, Heart (NHP)” value came out at 0.000 fold.
For the sequence KTIRENGSPHSKAQNQQT, the “Fold Enrichment relative to AAV9, Heart (NHP)” value is reported as 0.000 fold.
KTINGSGSPHSKAQSAHT: the “Fold Enrichment relative to AAV9, Heart (NHP)” value turned out to be 0.070 fold.

Still in this experiment, the particulars now being: NHP liver, DNA; relative to AAV9 control.
As for KTINGSGSPHSKAIGKQT, the “Fold Enrichment relative to AAV9, Liver DNA (NHP)” value turned out to be 0.088 fold.
As for KTIRENGSPHSKAQNQQT, the “Fold Enrichment relative to AAV9, Liver DNA (NHP)” value came out at 0.257 fold.
KTINGSGSPHSKAQSAHT: the “Fold Enrichment relative to AAV9, Liver DNA (NHP)” value stood at 0.249 fold.

The experiment is the same for the next values; noted with them: NHP liver, RNA; relative to AAV9 control.
For KTINGSGSPHSKAIGKQT, the “Fold Enrichment relative to AAV9, Liver RNA (NHP)” value is reported as 0.887 fold.
For the sequence KTIRENGSPHSKAQNQQT, the “Fold Enrichment relative to AAV9, Liver RNA (NHP)” value was 0.131 fold.
KTINGSGSPHSKAQSAHT: the “Fold Enrichment relative to AAV9, Liver RNA (NHP)” value was found to be 0.589 fold.

Staying with this experiment, now noted: NHP muscle; relative to AAV9 control.
Consider KTINGSGSPHSKAIGKQT, for which the “Fold Enrichment relative to AAV9, Muscle (NHP)” value turned out to be 0.000 fold.
Consider KTIRENGSPHSKAQNQQT, for which the “Fold Enrichment relative to AAV9, Muscle (NHP)” value was 0.016 fold.
Regarding KTINGSGSPHSKAQSAHT, the “Fold Enrichment relative to AAV9, Muscle (NHP)” value came to 0.000 fold.

The test system of the next experiment is brain. The experiment is described as follows: Matured TTM-001 and TTM-002 variants, NGS enrichment in mouse brain. The class given is in vivo, mice. The following applies: NGS fold-enrichment, brain of mice, relative to AAV9 control.
Take ETINGSGSPHSKAQNLQT: the “Fold Enrichment relative to AAV9, Brain (Mouse)” value is given as 107.216 fold.
For KTERISGSPHSKAQNQQT, the “Fold Enrichment relative to AAV9, Brain (Mouse)” value amounted to 89.637 fold.

Still in this experiment, the particulars now being: NGS fold-enrichment, mouse brain, relative to AAV9 control.
Take ETINGSGSPHSKAQNLQT: the “Fold Enrichment relative to AAV9, Brain (Mouse)” value was 107.216 fold.
Take KTERISGSPHSKAQNQQT: the “Fold Enrichment relative to AAV9, Brain (Mouse)” value turned out to be 89.637 fold.
In the case of KTELWHDSPHKSGQNQQT, the “Fold Enrichment relative to AAV9, Brain (Mouse)” value turned out to be 9.915 fold.
For “TTINGHDSPHKSGQNQQT (peptide inserted in AAV capsid)”, the “Fold Enrichment relative to AAV9, Brain (Mouse)” value is on record as 14.788 fold.
On to KTINGHDSPHKIGQNQHA, for which the “Fold Enrichment relative to AAV9, Brain (Mouse)” value is reported as 7.578 fold.

Staying with this experiment, now noted: mouse brain; relative to AAV9 control.
For KTINGSGSPHSKAIGKQT, the “Fold Enrichment relative to AAV9, Brain (Mouse)” value is reported as 110.132 fold.
For the sequence KTIRENGSPHSKAQNQQT, the “Fold Enrichment relative to AAV9, Brain (Mouse)” value came to 95.931 fold.
Still for that read-out and setting: the result for KTINGSGSPHSKAQSAHT reads 79.498 fold.

Source of the values: patent publication US20260250318A1, “COMPOSITIONS AND METHODS FOR CROSSING THE BLOOD BRAIN BARRIER” (VOYAGER THERAPEUTICS, INC., priority 2022, published 2026).
